Laboratory results taken from paper PMC10385824, “Antiproliferative and Tubulin-Destabilising Effects of 3-(Prop-1-en-2-yl)azetidin-2-Ones and Related Compounds in MCF-7 and MDA-MB-231 Breast Cancer Cells” (Pharmaceuticals, 2023).
Like-named read-outs stand apart in the source and are kept apart here.

Legend:
K-562 = experiment: NCI-60 SRB screen, leukemia; assay type: cell-based, human; conditions: for GI50: Homo sapiens, K562, 48 h, read-out: GI50
MOLT-4 = experiment: NCI-60 SRB screen, leukemia; assay type: cell-based, human; conditions: MOLT-4, 48 h; for GI50: Homo sapiens, five dose 0.01–100 µM, read-out: GI50
SR = experiment: NCI-60 SRB screen, leukemia; assay type: cell-based, human; conditions: 48 h; for GI50: Homo sapiens, five dose 0.01–100 µM, read-out: GI50
A549/ATCC = experiment: NCI-60 SRB screen, non-small cell lung cancer; assay type: cell-based, human; conditions: 48 h; for GI50: Homo sapiens, A549/ATCC, five dose 0.01–100 µM, read-out: GI50
EKVX = experiment: NCI-60 SRB screen, non-small cell lung cancer; assay type: cell-based, human; conditions: one dose 10 µM, 48 h
HOP-92 = experiment: NCI-60 SRB screen, non-small cell lung cancer; assay type: cell-based, human; conditions: HOP-92, 48 h; for GI50: Homo sapiens, five dose 0.01–100 µM, read-out: GI50
NCI-H23 = experiment: NCI-60 SRB screen, non-small cell lung cancer; assay type: cell-based, human; conditions: NCI-H23, 48 h; for GI50: Homo sapiens, five dose 0.01–100 µM, read-out: GI50
NCI-H552 = experiment: NCI-60 SRB screen, non-small cell lung cancer; assay type: cell-based, human; conditions: 48 h; for GI50: Homo sapiens, NCI-H552, five dose 0.01–100 µM, read-out: GI50
COLO 205 = experiment: NCI-60 SRB screen, colon cancer; assay type: cell-based, human; conditions: COLO 205, 48 h; for GI50: Homo sapiens, five dose 0.01–100 µM, read-out: GI50
HCT-2998 = experiment: NCI-60 SRB screen, colon cancer; assay type: cell-based, human; conditions: 48 h; for GI50: Homo sapiens, HCT-2998, five dose 0.01–100 µM, read-out: GI50
HCT-15 = experiment: NCI-60 SRB screen, colon cancer; assay type: cell-based, human; conditions: HCT-15, 48 h; for GI50: Homo sapiens, five dose 0.01–100 µM, read-out: GI50
KM12 = experiment: NCI-60 SRB screen, colon cancer; assay type: cell-based, human; conditions: KM12, 48 h; for GI50: Homo sapiens, five dose 0.01–100 µM, read-out: GI50
SW-620 = experiment: NCI-60 SRB screen, colon cancer; assay type: cell-based, human; conditions: SW-620, 48 h; for GI50: Homo sapiens, five dose 0.01–100 µM, read-out: GI50
SF539 = experiment: NCI-60 SRB screen, CNS cancer; assay type: cell-based, human; conditions: SF-539, 48 h
SNB-19 = experiment: NCI-60 SRB screen, CNS cancer; assay type: cell-based, human; conditions: SNB-19, 48 h; for GI50: Homo sapiens, five dose 0.01–100 µM, read-out: GI50
U251 = experiment: NCI-60 SRB screen, CNS cancer; assay type: cell-based, human; conditions: U251, 48 h; for GI50: Homo sapiens, U-251, five dose 0.01–100 µM, read-out: GI50
PC-3 = experiment: NCI-60 SRB screen, prostate cancer; assay type: cell-based, human; conditions: PC-3, 48 h; for GI50: Homo sapiens, five dose 0.01–100 µM, read-out: GI50
LOX IMVI = experiment: NCI-60 SRB screen, melanoma; assay type: cell-based, human; conditions: 48 h; for GI50: Homo sapiens, five dose 0.01–100 µM, read-out: GI50
SK-MEL-28 = experiment: NCI-60 SRB screen, melanoma; assay type: cell-based, human; conditions: SK-MEL-28, 48 h; for GI50: Homo sapiens, five dose 0.01–100 µM, read-out: GI50
SK-MEL-5 = experiment: NCI-60 SRB screen, melanoma; assay type: cell-based, human; conditions: SK-MEL-5, 48 h; for GI50: Homo sapiens, five dose 0.01–100 µM, read-out: GI50
IGROV1 = experiment: NCI-60 SRB screen, ovarian cancer; assay type: cell-based, human; conditions: IGROV1, 48 h; for GI50: Homo sapiens, IGROV-1, five dose 0.01–100 µM, read-out: GI50
OVCAR-4 = experiment: NCI-60 SRB screen, ovarian cancer; assay type: cell-based, human; conditions: OVCAR-4, 48 h; for GI50: Homo sapiens, five dose 0.01–100 µM, read-out: GI50
SK-OV-3 = experiment: NCI-60 SRB screen, ovarian cancer; assay type: cell-based, human; conditions: SK-OV-3, 48 h; for GI50: Homo sapiens, five dose 0.01–100 µM, read-out: GI50
A498 = experiment: NCI-60 SRB screen, renal cancer; assay type: cell-based, human; conditions: A498, 48 h; for GI50: Homo sapiens, five dose 0.01–100 µM, read-out: GI50
ACHN = experiment: NCI-60 SRB screen, renal cancer; assay type: cell-based, human; conditions: 48 h; for GI50: Homo sapiens, five dose 0.01–100 µM, read-out: GI50
CAKI-1 = experiment: NCI-60 SRB screen, renal cancer; assay type: cell-based, human; conditions: CAKI-1, 48 h; for GI50: Homo sapiens, five dose 0.01–100 µM, read-out: GI50
SN12C = experiment: NCI-60 SRB screen, renal cancer; assay type: cell-based, human; conditions: 48 h; for GI50: Homo sapiens, five dose 0.01–100 µM, read-out: GI50
TK-10 = experiment: NCI-60 SRB screen, renal cancer; assay type: cell-based, human; conditions: TK-10, 48 h; for GI50: Homo sapiens, five dose 0.01–100 µM, read-out: GI50
UO-31 = experiment: NCI-60 SRB screen, renal cancer; assay type: cell-based, human; conditions: UO-31, 48 h; for GI50: Homo sapiens, five dose 0.01–100 µM, read-out: GI50
MDA-MB-231/ATCC = experiment: NCI-60 SRB screen, breast cancer; assay type: cell-based, human; conditions: 48 h; for GI50: five dose 0.01–100 µM, read-out: GI50
MCF-7 = experiment: cells; conditions: Homo sapiens; for GI50: MCF7, 48 h
[1] = test system: NCI 60 human cancer cell line panel; experiment: NCI 60 cell line screen (SRB), panel values; conditions: for CC50 / GI50 / IC (TGI (total growth inhibition)): Homo sapiens, 60 cell; for IC (TGI (total growth inhibition)): read-out: Mean TGI
NCI-H226 = experiment: NCI-60 SRB screen, non-small cell lung cancer; assay type: cell-based; conditions: Homo sapiens; NCI-H226; five dose 0.01–100 µM, 48 h; read-out: GI50

SMILES: C=C(C)C1C(=O)N(c2cc(OC)c(OC)c(OC)c2)C1c1ccc(OC)c(O)c1 (stereo not shown) [9q, 4-(3-Hydroxy-4-methoxyphenyl)-1-(3,4,5-trimethoxyphenyl)-3-(prop-1-en-2-yl)azetidin-2-one]
- GI50 (K-562): 35.2 nM
- % Growth (K-562; K-562, one dose 10 µM, 48 h): 2.20%
- GI50 (MOLT-4): 20.2 nM
- % Growth (MOLT-4; one dose 10 µM): -15.34%
- GI50 (SR): < 10 nM
- % Growth (SR; one dose 10 µM): -2.84%
- % Growth (A549/ATCC; A549/A TCC, one dose 10 µM): 14.76%
- GI50 (A549/ATCC): 27.8 nM
- % Growth (EKVX): 68.88%
- % Growth (HOP-92; one dose 10 µM): 16.15%
- GI50 (HOP-92): 15.4 nM
- GI50 (NCI-H23): 23.7 nM
- % Growth (NCI-H23; one dose 10 µM): 14.46%
- GI50 (NCI-H552): < 10 nM
- % Growth (NCI-H552; NCI-H522, one dose 10 µM): -43.45%
- % Growth (COLO 205; one dose 10 µM): -27.00%
- GI50 (COLO 205): 284 nM
- % Growth (HCT-2998; HCC-2998, one dose 10 µM): -6.59%
- GI50 (HCT-2998): 30.1 nM
- % Growth (HCT-15; one dose 10 µM): 15.23%
- GI50 (HCT-15): 29.9 nM
- GI50 (KM12): < 10 nM
- % Growth (KM12; one dose 10 µM): -24.63%
- GI50 (SW-620): 33.4 nM
- % Growth (SW-620; one dose 10 µM): 17.89%
- % Growth (SF539; one dose 10 µM): -8.30%
- GI50 (SNB-19): 58.8 nM
- % Growth (SNB-19; one dose 10 µM): 37.93%
- GI50 (U251): 30.5 nM
- % Growth (U251; one dose 10 µM): 9.06%
- GI50 (PC-3): 20.1 nM
- % Growth (PC-3; one dose 10 µM): 27.31%
- GI50 (LOX IMVI): < 10 nM
- % Growth (LOX IMVI; one dose 10 µM): 30.61%
- GI50 (SK-MEL-28): 64300 nM
- % Growth (SK-MEL-28; one dose 10 µM): 65.72%
- GI50 (SK-MEL-5): 12.4 nM
- % Growth (SK-MEL-5; one dose 10 µM): -0.90%
- GI50 (IGROV1): 32.2 nM
- % Growth (IGROV1; one dose 10 µM): 29.32%
- GI50 (OVCAR-4): < 10 nM
- % Growth (OVCAR-4; one dose 10 µM): 25.51%
- GI50 (SK-OV-3): 30.4 nM
- % Growth (SK-OV-3; one dose 10 µM): 8.15%
- % Growth (A498; one dose 10 µM): -13.19%
- GI50 (A498): < 10 nM
- GI50 (ACHN): 21.3 nM
- % Growth (ACHN; one dose 10 µM): 34.94%
- % Growth (CAKI-1; one dose 10 µM): 44.03%
- GI50 (CAKI-1): 30.8 nM
- GI50 (SN12C): 37 nM
- % Growth (SN12C; one dose 10 µM): 31.39%
- GI50 (TK-10): 53.4 nM
- % Growth (TK-10; one dose 10 µM): 46.63%
- GI50 (UO-31): 87.8 nM
- % Growth (UO-31; one dose 10 µM): 29.39%
- GI50 (MDA-MB-231/ATCC; Homo sapiens, MDA-MB-231/ATCC): 16.8 nM
- IC50 (MDA-MB-231/ATCC; Homo sapiens, MDA-MB-231, obtained from NCI, five concentrations 0.01–100 μM, read-out: Antiproliferative Activity IC50): 23.9 nM
- % Growth (MDA-MB-231/ATCC; MDA-MB-231/ATCC, one dose 10 µM): -6.67%
- IC50 (MCF-7; MCF7): < 10 nM
- GI50 (MCF-7): < 10 nM
- CC50 (MCF-7; MCF7, read-out: LC50): > 100000 nM
- CC50 ([1]; 9 h, read-out: LC50): > 100000 nM
- GI50 ([1]; breast cancer cell lines MCF-7, MDA-MB-231, HS 578T, BT-549, MDA-MB-468): 10 to 16 nM
- GI50 ([1]; in 48 of the panel cell lines tested): < 50 nM
- CC50 ([1]; read-out: Mean LC50): 81300 nM
- IC (TGI (total growth inhibition)) [1]: 32400 nM
- GI50 in words ([1]; all cell lines investigated except T-47D): sub-micromolar
- TGI ([1]; for 34 of the cell lines tested): > 100000 nM
- % Growth, Delta ([1]; one dose 10 µM, 48 h): 65.02%
- % Growth, Range ([1]; one dose 10 µM, 48 h): 126.47%
- % Growth, Mean ([1]; one dose 10 µM, 48 h, all cell lines): 13.02%

SMILES: C=C(C)C1C(=O)N(c2cc(OC)c(OC)c(OC)c2)C1c1ccc(OC)c(OP(=O)(O)O)c1 (stereo not shown) [15a, 2-Methoxy-5-(4-oxo-3-(prop-1-en-2-yl)-1-(3,4,5-trimethoxyphenyl)azetidin-2-yl)-phenyl dihydrogen phosphate]
- GI50 (K-562): 45 nM
- GI50 (MOLT-4): 85.2 nM
- GI50 (SR): 53.1 nM
- GI50 (A549/ATCC): 59.6 nM
- GI50 (HOP-92): 315 nM
- GI50 (NCI-H226): > 100000 nM
- GI50 (NCI-H23): 90.2 nM
- GI50 (NCI-H552): 26 nM
- GI50 (COLO 205): 312 nM
- GI50 (HCT-2998): 238 nM
- GI50 (HCT-15): 70.7 nM
- GI50 (KM12): 38.1 nM
- GI50 (SW-620): 80.7 nM
- GI50 (SF539; Homo sapiens, SF539, five dose 0.01–100 µM, read-out: GI50): 39.8 nM
- GI50 (SNB-19): 429 nM
- GI50 (U251): 39.5 nM
- GI50 (PC-3): 49.4 nM
- GI50 (LOX IMVI): 42.6 nM
- GI50 (SK-MEL-28): 83.1 nM
- GI50 (SK-MEL-5): 40.6 nM
- GI50 (IGROV1): 62.8 nM
- GI50 (OVCAR-4): 73.9 nM
- GI50 (SK-OV-3): 79.1 nM
- GI50 (A498): 32.4 nM
- GI50 (ACHN): 77.1 nM
- GI50 (CAKI-1): 80.5 nM
- GI50 (SN12C): 192 nM
- GI50 (TK-10): 43100 nM
- GI50 (UO-31): 182 nM
- GI50 (MDA-MB-231/ATCC; Homo sapiens, MDA-MB-231/ATCC): 53.4 nM
- GI50 (MCF-7): 51.3 nM
- GI50 ([1]; read-out: Mean GI50, mean over all NCI 60 cell lines): 138 nM
- CC50 ([1]; read-out: Mean LC50): 85100 nM
- IC (TGI (total growth inhibition)) [1]: 43600 nM
